This note sets out measurements from ChEMBL document CHEMBL5223127, “Fragment-based discovery of novel phenyltriazolyl derivatives as allosteric type-I1/2 ALK inhibitors with promising antitumor effects” (Bioorg Med Chem Lett, 2022).

Assay [1] concerns the target ALK tyrosine kinase receptor (Homo sapiens, UniProt Q9UM73). The experiment in a line: Inhibition of wild type ALK (unknown origin).
For a further assay, the system named is KARPAS-299. Kind of assay: Antiproliferative activity against human KARPAS-299 cells by MTT assay. For orientation: Tetrazolium assays rely on reduction of a dye to a coloured formazan, in cell work by metabolically active cells.
For assay [2], the target named is Epidermal growth factor receptor (Homo sapiens, UniProt P00533). The experiment in a line: Inhibition of EGFR (unknown origin).
Assay [3] deals with ALK tyrosine kinase receptor (Homo sapiens, UniProt Q9UM73, L1196M). Kind of assay: Inhibition of ALK L1196M mutant (unknown origin).
Assay [4] relates to NCI-H2228. The experiment in a line: Antiproliferative activity against human NCI-H2228 cells by MTT assay.
In assay [5] the target is Hepatocyte growth factor receptor (Homo sapiens, UniProt P08581). Kind of assay: Inhibition of c-MET (unknown origin).
The subject of the next assay is A549. Kind of assay: cells. To be noted: Homo sapiens.
In assay [6] the test system is NCI-H2228. The experiment in a line: Induction of apoptosis in human NCI-H2228 cells assessed as nuclear contraction incubated for 24 hrs by Hoechst 33342 staining based fluorescence microscopy assay. The format is functional, cell-based. The note with it: dose 25-100 nM.
In assay [7] the test system is NCI-H2228. Kind of assay: Antimigratory activity against human NCI-H2228 cells incubated for 48 hrs by wound healing assay. The class given is functional, cell-based. To be noted: dose 12.5-50 nM.
Assay [8] relates to NCI-H2228. The experiment in a line: Induction of apoptosis in human NCI-H2228 cells assessed as nuclear fragmentation incubated for 24 hrs by Hoechst 33342 staining based fluorescence microscopy assay. The format is functional, cell-based. The note with it: dose 25-100 nM.
In assay [9] the test system is NCI-H2228. Kind of assay: Inhibition of colony formation in human NCI-H2228 cells incubated for 24 hrs. The format is functional, cell-based. To be noted: dose 0.25-1 µM.
Assay [10] deals with NCI-H2228. Kind of assay: Inhibition of colony formation in human NCI-H2228 cells at 1 uM incubated for 24 hrs. The format is functional.

Sequence of ALK tyrosine kinase receptor (Homo sapiens, UniProt Q9UM73) (Q9UM73 whole entry): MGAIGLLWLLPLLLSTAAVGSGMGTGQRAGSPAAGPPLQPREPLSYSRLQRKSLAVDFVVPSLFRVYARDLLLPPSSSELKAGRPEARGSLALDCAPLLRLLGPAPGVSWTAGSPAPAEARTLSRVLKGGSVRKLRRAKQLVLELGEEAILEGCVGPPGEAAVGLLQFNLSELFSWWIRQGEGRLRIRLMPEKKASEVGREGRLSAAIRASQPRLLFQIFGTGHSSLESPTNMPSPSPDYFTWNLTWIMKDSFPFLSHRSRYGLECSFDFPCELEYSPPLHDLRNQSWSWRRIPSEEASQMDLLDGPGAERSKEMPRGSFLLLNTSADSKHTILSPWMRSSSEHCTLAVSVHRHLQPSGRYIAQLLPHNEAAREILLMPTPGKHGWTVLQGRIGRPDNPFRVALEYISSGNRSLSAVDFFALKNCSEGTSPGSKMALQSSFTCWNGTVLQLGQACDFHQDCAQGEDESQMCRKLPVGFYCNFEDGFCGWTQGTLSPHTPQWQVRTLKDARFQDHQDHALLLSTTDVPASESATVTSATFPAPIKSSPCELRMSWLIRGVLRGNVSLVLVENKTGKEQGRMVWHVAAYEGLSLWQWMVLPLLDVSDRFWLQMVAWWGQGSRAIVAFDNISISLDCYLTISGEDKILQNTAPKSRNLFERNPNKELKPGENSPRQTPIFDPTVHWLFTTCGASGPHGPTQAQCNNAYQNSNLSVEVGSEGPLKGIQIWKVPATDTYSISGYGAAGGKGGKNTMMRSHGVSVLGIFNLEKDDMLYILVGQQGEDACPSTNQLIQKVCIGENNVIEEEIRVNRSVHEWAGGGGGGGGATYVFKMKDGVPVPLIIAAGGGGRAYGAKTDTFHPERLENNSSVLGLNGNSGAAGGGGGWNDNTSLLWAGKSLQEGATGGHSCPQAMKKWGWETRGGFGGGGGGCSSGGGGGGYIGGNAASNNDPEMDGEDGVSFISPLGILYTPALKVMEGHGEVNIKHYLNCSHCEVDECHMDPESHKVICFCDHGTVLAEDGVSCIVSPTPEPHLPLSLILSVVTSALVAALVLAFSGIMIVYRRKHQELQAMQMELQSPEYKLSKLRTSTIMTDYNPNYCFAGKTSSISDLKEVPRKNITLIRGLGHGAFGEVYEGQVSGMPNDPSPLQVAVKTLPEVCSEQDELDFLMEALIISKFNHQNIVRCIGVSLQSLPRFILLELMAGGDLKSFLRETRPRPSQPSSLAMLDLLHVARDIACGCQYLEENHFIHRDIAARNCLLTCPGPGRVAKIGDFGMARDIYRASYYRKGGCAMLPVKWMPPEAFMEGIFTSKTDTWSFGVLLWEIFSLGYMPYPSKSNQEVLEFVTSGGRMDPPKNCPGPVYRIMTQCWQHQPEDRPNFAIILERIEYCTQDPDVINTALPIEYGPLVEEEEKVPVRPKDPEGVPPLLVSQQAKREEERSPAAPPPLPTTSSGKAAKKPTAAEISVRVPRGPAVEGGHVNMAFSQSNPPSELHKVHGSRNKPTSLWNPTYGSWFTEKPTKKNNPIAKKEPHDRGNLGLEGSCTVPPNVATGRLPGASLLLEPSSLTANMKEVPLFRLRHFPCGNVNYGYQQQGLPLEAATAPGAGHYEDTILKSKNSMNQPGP
Sequence of Epidermal growth factor receptor (P00533 whole entry): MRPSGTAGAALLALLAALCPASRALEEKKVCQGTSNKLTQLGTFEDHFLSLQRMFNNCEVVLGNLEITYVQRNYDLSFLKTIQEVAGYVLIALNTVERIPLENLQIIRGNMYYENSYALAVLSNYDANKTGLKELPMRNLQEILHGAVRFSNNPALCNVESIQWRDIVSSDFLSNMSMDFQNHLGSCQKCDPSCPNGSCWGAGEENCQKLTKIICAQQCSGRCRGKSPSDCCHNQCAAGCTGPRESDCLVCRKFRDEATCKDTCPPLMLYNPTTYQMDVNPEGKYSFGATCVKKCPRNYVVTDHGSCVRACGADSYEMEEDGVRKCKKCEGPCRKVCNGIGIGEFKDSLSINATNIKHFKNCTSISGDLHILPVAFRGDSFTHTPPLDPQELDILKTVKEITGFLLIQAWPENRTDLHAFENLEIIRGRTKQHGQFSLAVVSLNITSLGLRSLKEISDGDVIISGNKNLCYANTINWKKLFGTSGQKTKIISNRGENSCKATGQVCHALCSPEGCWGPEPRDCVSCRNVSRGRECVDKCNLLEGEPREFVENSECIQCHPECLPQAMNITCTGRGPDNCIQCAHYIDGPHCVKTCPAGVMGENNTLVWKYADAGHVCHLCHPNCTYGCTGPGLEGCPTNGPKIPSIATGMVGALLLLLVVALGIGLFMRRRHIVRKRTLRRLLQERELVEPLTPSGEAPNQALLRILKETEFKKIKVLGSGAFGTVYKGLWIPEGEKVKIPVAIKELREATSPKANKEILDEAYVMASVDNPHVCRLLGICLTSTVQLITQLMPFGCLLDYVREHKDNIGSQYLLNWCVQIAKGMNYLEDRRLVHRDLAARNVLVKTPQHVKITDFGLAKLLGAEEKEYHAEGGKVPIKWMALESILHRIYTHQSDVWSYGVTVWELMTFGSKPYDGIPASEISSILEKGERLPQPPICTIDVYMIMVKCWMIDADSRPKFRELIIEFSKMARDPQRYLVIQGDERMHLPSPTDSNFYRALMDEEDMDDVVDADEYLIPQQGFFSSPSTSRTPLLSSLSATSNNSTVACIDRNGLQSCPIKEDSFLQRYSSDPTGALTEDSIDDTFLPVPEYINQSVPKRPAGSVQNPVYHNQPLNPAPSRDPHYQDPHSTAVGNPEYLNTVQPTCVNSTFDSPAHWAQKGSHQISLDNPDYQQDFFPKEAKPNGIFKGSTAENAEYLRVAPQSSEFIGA
Sequence of ALK tyrosine kinase receptor (Homo sapiens, UniProt Q9UM73, L1196M) (Q9UM73 19-1620 L1196M limits assumed): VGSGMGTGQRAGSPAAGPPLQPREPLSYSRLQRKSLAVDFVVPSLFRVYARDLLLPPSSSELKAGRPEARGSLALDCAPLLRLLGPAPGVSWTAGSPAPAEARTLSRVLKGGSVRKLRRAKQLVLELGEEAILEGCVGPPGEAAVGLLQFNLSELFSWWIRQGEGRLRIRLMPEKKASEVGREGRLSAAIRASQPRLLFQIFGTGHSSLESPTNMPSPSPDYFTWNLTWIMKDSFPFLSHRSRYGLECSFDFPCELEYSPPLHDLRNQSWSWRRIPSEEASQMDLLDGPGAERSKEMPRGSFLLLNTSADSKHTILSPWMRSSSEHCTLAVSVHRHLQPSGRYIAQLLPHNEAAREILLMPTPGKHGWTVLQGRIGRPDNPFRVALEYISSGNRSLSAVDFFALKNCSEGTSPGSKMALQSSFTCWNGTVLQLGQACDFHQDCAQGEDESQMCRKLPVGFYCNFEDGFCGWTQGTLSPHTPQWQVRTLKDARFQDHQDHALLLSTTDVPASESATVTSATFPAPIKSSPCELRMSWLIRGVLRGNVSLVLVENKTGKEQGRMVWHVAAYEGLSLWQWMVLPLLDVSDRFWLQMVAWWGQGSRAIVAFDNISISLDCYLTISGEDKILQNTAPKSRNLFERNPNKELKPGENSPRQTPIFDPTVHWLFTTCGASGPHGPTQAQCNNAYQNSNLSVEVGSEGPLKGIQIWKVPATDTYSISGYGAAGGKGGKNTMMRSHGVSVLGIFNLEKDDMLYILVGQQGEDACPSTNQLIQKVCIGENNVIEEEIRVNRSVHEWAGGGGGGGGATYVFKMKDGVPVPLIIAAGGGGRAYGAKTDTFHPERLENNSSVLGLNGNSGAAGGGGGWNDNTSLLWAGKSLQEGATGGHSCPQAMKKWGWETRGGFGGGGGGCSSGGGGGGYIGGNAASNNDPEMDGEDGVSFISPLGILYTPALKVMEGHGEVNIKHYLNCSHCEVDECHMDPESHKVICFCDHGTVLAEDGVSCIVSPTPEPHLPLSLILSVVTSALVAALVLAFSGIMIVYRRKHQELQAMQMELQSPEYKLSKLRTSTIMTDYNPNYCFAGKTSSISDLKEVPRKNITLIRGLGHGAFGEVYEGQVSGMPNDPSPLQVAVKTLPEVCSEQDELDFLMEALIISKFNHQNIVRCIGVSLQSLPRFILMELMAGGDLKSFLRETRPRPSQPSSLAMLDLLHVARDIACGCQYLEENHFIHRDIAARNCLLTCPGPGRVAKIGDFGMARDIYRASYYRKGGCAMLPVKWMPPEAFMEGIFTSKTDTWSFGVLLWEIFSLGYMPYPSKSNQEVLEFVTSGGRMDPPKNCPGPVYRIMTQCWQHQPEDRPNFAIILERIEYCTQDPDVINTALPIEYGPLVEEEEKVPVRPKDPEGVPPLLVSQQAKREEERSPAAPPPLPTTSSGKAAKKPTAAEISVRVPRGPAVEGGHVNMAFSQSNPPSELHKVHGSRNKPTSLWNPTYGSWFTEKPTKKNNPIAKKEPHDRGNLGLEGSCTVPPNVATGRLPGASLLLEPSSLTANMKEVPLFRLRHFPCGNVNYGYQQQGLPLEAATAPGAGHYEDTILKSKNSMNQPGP
Description for A549: Antiproliferative activity against human A549 cells by MTT assay

As a reminder, the IC50 is the midpoint of a concentration-inhibition curve. Low values mean greater potency, high ones weaker potency. In turn, `CN1CCN(c2ccc(NCc3cn(-c4cccc(NC(=O)c5cc(F)cc(F)c5)c4)nn3)cc2)CC1` came in with a half-maximal inhibitory concentration (IC50) in [1] of 55 nM. In other words, the double-digit nanomolar range.
For `O=C(Nc1cccc(-n2cc(CNc3ccc(N4CCC(O)CC4)c(C(=O)N4CCCCC4)c3)nn2)c1)c1cc(F)cc(F)c1`, the IC50 in the assay with KARPAS-299 was 57 nM; in assay [2], more than 1000 nM; in [3], 17.6 nM; with NCI-H2228 [4] it was 192 nM; in assay [1] it was 8.6 nM; in assay [5] it was more than 1000 nM. The same compound returned a half-inhibitory concentration (IC50) in the assay with A549 of more than 10000 nM.
On to `CC1CCN(c2ccc(NCc3cn(-c4cccc(NC(=O)c5cc(F)cc(F)c5)c4)nn3)cc2C(=O)N2CCCCC2)CC1`, for which the figures for the half-maximal inhibitory concentration (IC50) in the assay on KARPAS-299, in the assay with NCI-H2228 [4] and in the assay on A549 were 240 nM, 1030 nM and more than 10000 nM, respectively.
As to `O=C(Nc1cccc(-n2cc(CNc3ccc(NCCO)c(C(=O)N4CCOCC4)c3)nn2)c1)c1cc(F)cc(F)c1`, the IC50 in the assay on KARPAS-299 is 1540 nM; in the assay with NCI-H2228 [4], 6940 nM; with A549 it was more than 10000 nM.
For `O=C(Nc1cccc(-n2cc(CNc3ccc(N4CCC(O)CC4)c(C(=O)N4CCOCC4)c3)nn2)c1)c1cc(F)cc(F)c1`, in that order: 425 nM, 1860 nM and more than 10000 nM.
For `O=C(Nc1cccc(-n2cc(CNc3ccc(N4CCCCC4)c(C(=O)N4CCOCC4)c3)nn2)c1)c1cc(F)cc(F)c1` the same measures were 1910 nM, 7520 nM and more than 10000 nM.
For `CN(C)C(=O)c1cc(NCc2cn(-c3cccc(NC(=O)c4cc(F)cc(F)c4)c3)nn2)ccc1N(C)C` the same measures were 356 nM, 1610 nM and 4930 nM.
With `O=C(Nc1cccc(-n2cc(CNc3ccc(N4CC(O)C4)c(C(=O)N4CCCCC4)c3)nn2)c1)c1cc(F)cc(F)c1`, the IC50 with KARPAS-299 was 55 nM; in [2], more than 1000 nM; in assay [3], 12.9 nM; with NCI-H2228 [4], 193 nM; in assay [1], 5.8 nM; in assay [5] it was 796 nM. Besides, the half-inhibitory concentration (IC50) in the assay with A549 is more than 10000 nM.
Regarding `CNCc1cn(-c2cccc(NC(=O)c3cc(F)cc(F)c3)c2)nn1`, in assay [1], the IC50 turned out to be 270 nM.
For `CN(C)C(=O)c1cc(NCc2cn(-c3cccc(NC(=O)c4cc(F)cc(F)c4)c3)nn2)ccc1N1CCC(O)CC1`, the IC50 in the assay with KARPAS-299 was 62 nM; in the assay on NCI-H2228 [4] it was 198 nM; in the assay on A549 it was 2050 nM.
For `CN1CCN(c2ccc(NCc3cn(-c4cccc(NC(=O)c5cc(F)cc(F)c5)c4)nn3)cc2C(=O)N2CCCCC2)CC1` the same measures were 91 nM, 387 nM and more than 10000 nM.
As to `CC1CCN(c2ccc(NCc3cn(-c4cccc(NC(=O)c5cc(F)cc(F)c5)c4)nn3)cc2C(=O)N2CCCC2)CC1`, the 50% inhibitory concentration (IC50) is 249 nM with KARPAS-299, 995 nM in the assay on NCI-H2228 [4] and more than 10000 nM in the assay on A549.
For `CN(C)C(=O)c1cc(NCc2cn(-c3cccc(NC(=O)c4cc(F)cc(F)c4)c3)nn2)ccc1NCCO` the same measures were 492 nM, 1790 nM and 7990 nM.
A word on the inhibition: it is the change of the read-out against control, counted positive when it falls. As to `O=C(Nc1cccc(-n2cc(CNc3ccc(N4CCC(O)CC4)c(C(=O)N4CCCC4)c3)nn2)c1)c1cc(F)cc(F)c1`, the concentration for half-maximal inhibition (IC50) was 51 nM with KARPAS-299; more than 1000 nM in [2]; 6.8 nM in assay [3]; 175 nM in the assay with NCI-H2228 [4]; 3.7 nM in assay [1]; more than 1000 nM in assay [5]. The compound also returned a half-maximal inhibitory concentration (IC50) in the assay with A549 of more than 10000 nM. Besides, the Activity result with NCI-H2228 [6], in the assay with NCI-H2228 [7] and with NCI-H2228 [8] was “Dose-Dependent Effect” throughout. In the assay with NCI-H2228 [9], the inhibition result was “Dose-Dependent Effect”. In the assay with NCI-H2228 [10], this compound yielded an inhibition at 1 µM of 100%.
For the compound `O=C(Nc1cccc(-n2cc(CNc3ccc(NCCO)c(C(=O)N4CCCCC4)c3)nn2)c1)c1cc(F)cc(F)c1`, the IC50 is 602 nM in the assay with KARPAS-299, 2520 nM in the assay with NCI-H2228 [4] and more than 10000 nM in the assay with A549.
On to `CC1CCN(c2ccc(NCc3cn(-c4cccc(NC(=O)c5cc(F)cc(F)c5)c4)nn3)cc2C(=O)N2CCOCC2)CC1`, for which the IC50 was 2310 nM with KARPAS-299, more than 10000 nM with NCI-H2228 [4] and more than 10000 nM in the assay on A549.
As to `CN1CCN(c2ccc(NCc3cn(-c4cccc(NC(=O)c5cc(F)cc(F)c5)c4)nn3)cc2C(=O)N2CCOCC2)CC1`, the values for the 50% inhibitory concentration (IC50) with KARPAS-299, in the assay on NCI-H2228 [4] and in the assay on A549 were 452 nM, 1980 nM and more than 10000 nM, respectively.
Regarding `CN1CCN(c2ccc(NCc3cn(-c4cccc(NC(=O)c5cc(F)cc(F)c5)c4)nn3)cc2C(=O)N(C)C)CC1`, the IC50 with KARPAS-299 is 55 nM; in the assay with NCI-H2228 [4], 169 nM; with A549 it was 3750 nM.
On to `CN(C)c1ccc(NCc2cn(-c3cccc(NC(=O)c4cc(F)cc(F)c4)c3)nn2)cc1C(=O)N1CCCC1`, for which the IC50 in the assay on KARPAS-299 was 511 nM; with NCI-H2228 [4] it was 2690 nM; in the assay with A549, more than 10000 nM.
For `CN(C)c1ccc(NCc2cn(-c3cccc(NC(=O)c4cc(F)cc(F)c4)c3)nn2)cc1C(=O)N1CCCCC1`, in that order: 589 nM, 2800 nM and more than 10000 nM.
`CN(C)C(=O)c1cc(NCc2cn(-c3cccc(NC(=O)c4cc(F)cc(F)c4)c3)nn2)ccc1N1CCCCC1`: the IC50 with KARPAS-299 was 157 nM; in the assay on NCI-H2228 [4] it was 760 nM; with A549, 4120 nM.
In the case of `O=C(Nc1cccc(-n2cc(CNc3ccc(N4CCCCC4)c(C(=O)N4CCCC4)c3)nn2)c1)c1cc(F)cc(F)c1`, the values for the IC50 with KARPAS-299, with NCI-H2228 [4] and with A549 were 232 nM, 991 nM and more than 10000 nM, respectively.
With `CC1CCN(c2ccc(NCc3cn(-c4cccc(NC(=O)c5cc(F)cc(F)c5)c4)nn3)cc2C(=O)N(C)C)CC1`, the IC50 with KARPAS-299 turned out to be 191 nM; with NCI-H2228 [4], 881 nM; in the assay on A549, 5790 nM.
As to `CN1CCN(c2ccc(NCc3cn(-c4cccc(NC(=O)c5cc(F)cc(F)c5)c4)nn3)cc2C(=O)N2CCCC2)CC1`, the IC50 in the assay with KARPAS-299 is 79 nM; with NCI-H2228 [4], 362 nM; in the assay with A549, more than 10000 nM.
Turning to `CN(C)c1ccc(NCc2cn(-c3cccc(NC(=O)c4cc(F)cc(F)c4)c3)nn2)cc1C(=O)N1CCOCC1`, the results for the 50% inhibitory concentration (IC50) with KARPAS-299, in the assay on NCI-H2228 [4] and in the assay on A549 were 1760 nM, 7890 nM and more than 10000 nM, respectively.
For `O=C(Nc1cccc(-n2cc(CNc3ccc(N4CCCCC4)c(C(=O)N4CCCCC4)c3)nn2)c1)c1cc(F)cc(F)c1` the same measures were 272 nM, 1020 nM and more than 10000 nM.
With `O=C(Nc1cccc(-n2cc(CNc3ccc(N4CC(O)C4)c(C(=O)N4CCOCC4)c3)nn2)c1)c1cc(F)cc(F)c1`, the half-inhibitory concentration (IC50) with KARPAS-299 is 594 nM; in the assay on NCI-H2228 [4], 1610 nM; in the assay with A549, more than 10000 nM.
